Data taken from patent US20040228820A1, “Compositions comprising an amidine and an alkane polyol” (The Procter & Gamble Company, priority 2003, published 2004).

Test: Stabilisation of amidines in aqueous solution by alkane polyols
Text: The compositions of the present invention also comprise an alkane polyol having an N-octanol/water partition coefficient (ClogP) of from +0.2 to +1.55. […] The ClogP values of these materials indicate their hydrophilic/lipophilic balance. Alkane polyols having a ClogP value of between +0.2 and +1.55 are slightly lipophilic, enabling them to interact with the amidines. However, the alkane polyols herein maintain a high enough solubility in water due to the presence of the hydroxy moieties to allow them to maintain the amidine in solution.

Row | Compound | Stabilises Amidines?
1 | CCCC(O)CO (centres unmarked) [1,2 Pentanediol] | No
2 | CCCCCCC(O)CO (centres unmarked) [1,2-octanediol] | Yes
3 | OCCCCCCCCCO [1,9-nonanediol] | Yes
4 | CC(O)CCC(C)O (centres unmarked) [2,5-hexanediol] | No

More lines, now with the values ahead:

Row | Stabilises Amidines? | Compound
5 | Yes | CCCCCC(O)CO (centres unmarked) [1,2-heptanediol]
6 | Yes | CCCCC(O)CO (centres unmarked) [1,2-hexanediol]
7 | Yes | OCCCCCCCO [1,7-heptanediol]
8 | No | OCCCCCCCCCCO [1,10-decanediol]
